The values that follow are results of earlier work, collected in patent publication US8318452B2, “Solid culture medium for the detection and/or the species discrimination of glycopeptide-resistant enterococci” (priority 2006, dated 2012).

For series [1], the system named is VanB type glycopeptide-resistant enterococci. Particulars: Type of glycopeptide resistance VanB.
Series [2] deals with VanC type glycopeptide-resistant enterococci. Particulars: Type of glycopeptide resistance VanC.

By MIC is commonly meant the lowest concentration that inhibits growth of the organism. In the case of teicoplanin, the MIC in series [1] and in series [2] was 0.5 to 1 µg/mL throughout.
